Measurements published in patent US20240409585A1, “MACROCYCLIC IMMUNOMODULATORS” (priority 2021, published 2024).
Numbered stars: 1 amine (or outer) side, 2 acyl side, 3 side chain; on linkers, the order of the positions; unused ones are H or OH. Bridge positions count the residues as written; N and C are the ends. Square brackets hold non-standard residues; d marks the D form. Peptide text beside a SMILES is read from it. * marks the point of attachment. X40 = O=C([C@H](Cc1ccc(-c2cccc(O)c2)cc1)N[*:1])[*:2]; Bip = N[C@@H](Cc1ccc(-c2ccccc2)cc1)C(=O)O; Phe(3-Cl) = N[C@@H](Cc1cccc(Cl)c1)C(=O)O; Phe(3-OMe) = COc1cccc(C[C@H](N)C(=O)O)c1; Phe(3-Me) = Cc1cccc(C[C@H](N)C(=O)O)c1; Bta = N[C@@H](Cc1csc2ccccc12)C(=O)O; Val(3-OH) = CC(C)(O)[C@H](N)C(=O)O; 4Pal = N[C@@H](Cc1ccncc1)C(=O)O; Cha = N[C@@H](CC1CCCCC1)C(=O)O; Cit = NC(=O)NCCC[C@H](N)C(=O)O; Pip = O=C(O)[C@@H]1CCCCN1; Carboxymethyl = O=C(O)C*; NMeA = CN[C@@H](C)C(=O)O; Nle = CCCC[C@H](N)C(=O)O; Orn = NCCC[C@H](N)C(=O)O; Dab = NCC[C@H](N)C(=O)O; Nva = CCC[C@H](N)C(=O)O; Dap = NC[C@H](N)C(=O)O

target: T1, PE-labeled human PD-L1-Ig binding to Jurkat cell line over-expressing human PD-1 (Jurkat-PD-1) (Homo sapiens, UniProt Q15116); assay: Jurkat-PD-1 Cell Binding High-Content Screening Assay (CBA): Method 1; conditions: Jurkat-hPD-1 cells, PE-labeled PD-L1-Ig 20 nM final; read-out: Jurkat HPDL1 PD1 IC50 (uM) (Method 1)
T1 construct: expressed in transfected cells; host or cells: Jurkat
T1 sequence (Q15116 25-288): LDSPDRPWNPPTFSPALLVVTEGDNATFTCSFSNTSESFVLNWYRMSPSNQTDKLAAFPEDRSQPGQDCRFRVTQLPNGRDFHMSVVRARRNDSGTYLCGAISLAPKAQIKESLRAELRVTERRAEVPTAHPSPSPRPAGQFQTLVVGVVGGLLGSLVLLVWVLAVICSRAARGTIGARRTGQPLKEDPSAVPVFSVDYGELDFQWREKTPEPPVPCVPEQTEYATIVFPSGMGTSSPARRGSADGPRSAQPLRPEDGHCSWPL

| SMILES | IC50 [µM] |
| --- | --- |
| CCC[C@@H]1NC(=O)[C@H](Cc2ccc(-c3ccccc3)cc2)NC(=O)[C@H](C(C)C)NC(=O)[C@H](Cc2c[nH]c3ccccc23)NC(=O)[C@H](CC(=O)O)NC(=O)[C@H](Cc2ccc(O)cc2)NC(=O)[C@H](CC(N)=O)NC(=O)CSC[C@@H](C(=O)N[C@@H](C)C(N)=O)NC(=O)[C@H]([C@@H](C)O)NC(=O)[C@H](C(C)C)NC(=O)[C@H](CC(C)C)NC(=O)[C@H](CCN)NC(=O)[C@@H](CC(C)C)NC(=O)[C@H](C)N(C)C1=O [Compound 1258] ({CH2CO}-NYDWV[Bip][Nva][NMeA][dL][Dab]LVTCA-NH2; thioether N-14) | 0.04 |
| CC(C)C[C@@H]1NC(=O)[C@H](CCN)NC(=O)[C@@H](CC(C)C)NC(=O)[C@H](C)N(C)C(=O)[C@H](C(C)C)NC(=O)[C@H](Cc2ccc(-c3ccccc3)cc2)NC(=O)[C@H](C(C)C)NC(=O)[C@H](Cc2cccc(Cl)c2)NC(=O)[C@H](CC(=O)O)NC(=O)[C@H](Cc2ccc(O)cc2)NC(=O)[C@H](CC(N)=O)NC(=O)CSC[C@@H](C(=O)N[C@@H](C)C(N)=O)NC(=O)[C@H]([C@@H](C)O)NC(=O)[C@H](C(C)C)NC1=O [Compound 1265] ({CH2CO}-NYD[Phe(3-Cl)]V[Bip]V[NMeA][dL][Dab]LVTCA-NH2; thioether N-14) | 0.01 |
| CC(C)C[C@@H]1NC(=O)[C@H](CCCNC(=N)N)NC(=O)[C@@H](CC(C)C)NC(=O)[C@H](C)N(C)C(=O)[C@H](CCCNC(=N)N)NC(=O)[C@H](Cc2ccc(-c3ccccc3)cc2)NC(=O)[C@H](C(C)C)NC(=O)[C@H](Cc2c[nH]c3ccccc23)NC(=O)[C@H](CC(=O)O)NC(=O)[C@H](Cc2ccc(O)cc2)NC(=O)[C@H](CCC(N)=O)NC(=O)CSC[C@@H](C(=O)N[C@@H](C)C(N)=O)NC(=O)[C@H](CO)NC(=O)[C@H](C(C)C)NC1=O [Compound 1029] ({CH2CO}-QYDWV[Bip]R[NMeA][dL]RLVSCA-NH2; thioether N-14) | 0.04 |
| Cc1cccc(C[C@@H]2NC(=O)[C@H](CC(=O)O)NC(=O)[C@H](Cc3ccc(O)cc3)NC(=O)[C@H](Cc3ccccc3)NC(=O)CSC[C@@H](C(=O)NCC(N)=O)NC(=O)[C@H](CO)NC(=O)[C@H](C(C)C)NC(=O)[C@H](CC(C)C)NC(=O)[C@H](CC(N)=O)NC(=O)[C@@H](CC(C)C)NC(=O)[C@H](C)N(C)C(=O)[C@H](C(C)C)NC(=O)[C@H](Cc3ccc(-c4ccccc4)cc3)NC(=O)[C@H](CC(C)C)NC2=O)c1 [Compound 1517] ({CH2CO}-FYD[Phe(3-Me)]L[Bip]V[NMeA][dL]NLVSCG-NH2; thioether N-14) | 0.02 |
| CC[C@H](C)[C@@H]1NC(=O)[C@H](Cc2ccc(-c3ccccc3)cc2)NC(=O)[C@H](C(C)(C)O)NC(=O)[C@H](Cc2cccc(C)c2)NC(=O)[C@H](CC(=O)O)NC(=O)[C@H](Cc2ccc(O)cc2)NC(=O)[C@H](CC(N)=O)NC(=O)CSC[C@@H](C(=O)N[C@@H](CCN)C(N)=O)NC(=O)[C@H](CCC(=O)O)NC(=O)[C@H](C(C)C)NC(=O)[C@H](CC2CCCCC2)NC(=O)[C@H](CCN)NC(=O)[C@@H](CC(C)C)NC(=O)[C@H](C)N(C)C1=O [Compound 1697] ({CH2CO}-NYD[Phe(3-Me)][Val(3-OH)][Bip]I[NMeA][dL][Dab][Cha]VEC[Dab]-NH2; thioether N-14) | 0.02 |
| CC(C)C[C@H]1NC(=O)[C@H](C)N(C)C(=O)[C@H](CCCNC(N)=O)NC(=O)[C@H](Cc2ccc(-c3ccccc3)cc2)NC(=O)[C@H](C(C)C)NC(=O)[C@H](Cc2c[nH]c3ccccc23)NC(=O)[C@H](CC(=O)O)NC(=O)[C@H](Cc2ccc(OCC(=O)O)cc2)NC(=O)[C@H](Cc2ccccc2)NC(=O)CSC[C@@H](C(=O)N[C@@H](C)C(N)=O)NC(=O)[C@H](CO)NC(=O)[C@H](C(C)C)NC(=O)[C@H](CC2CCCCC2)NC(=O)[C@H](CC(N)=O)NC1=O [Compound 2022] ({CH2CO}-FY(Carboxymethyl)DWV[Bip][Cit][NMeA][dL]N[Cha]VSCA-NH2; thioether N-14) | 0.01 |
| CC(C)C[C@@H]1NC(=O)[C@H](Cc2c[nH]c3ccccc23)NC(=O)[C@H](CC(=O)O)NC(=O)[C@H](Cc2ccncc2)NC(=O)[C@H](Cc2ccc(OCC(=O)O)cc2)NC(=O)CSC[C@@H](C(=O)N[C@@H](CC(N)=O)C(N)=O)NC(=O)[C@H]([C@@H](C)O)NC(=O)[C@H](C(C)C)NC(=O)[C@H](CC2CCCCC2)NC(=O)[C@H](CCN)NC(=O)[C@@H](CC(C)C)NC(=O)[C@H](C)N(C)C(=O)[C@H](C(C)C)NC(=O)[C@H](Cc2ccc(-c3ccccc3)cc2)NC1=O [Compound 1902] ({CH2CO}-Y(Carboxymethyl)[4Pal]DWL[Bip]V[NMeA][dL][Dab][Cha]VTCN-NH2; thioether N-14) | 0.01 |
| CC(C)C[C@@H]1NC(=O)[C@H](CCCNC(=N)N)NC(=O)[C@H](Cc2csc3ccccc23)NC(=O)[C@H](C)N(C)C(=O)[C@H](CCCNC(=N)N)NC(=O)[C@H](Cc2ccc(-c3ccccc3)cc2)NC(=O)[C@H](C(C)C)NC(=O)[C@H](Cc2c[nH]c3ccccc23)NC(=O)[C@H](CC(=O)O)NC(=O)[C@H](Cc2ccc(O)cc2)NC(=O)[C@H](CCC(N)=O)NC(=O)CSC[C@@H](C(=O)N[C@@H](C)C(N)=O)NC(=O)[C@H](CO)NC(=O)[C@H](C(C)C)NC1=O [Compound 1057] ({CH2CO}-QYDWV[Bip]R[NMeA][Bta]RLVSCA-NH2; thioether N-14) | 0.18 |
| CC(C)C[C@@H]1NC(=O)[C@H](CCCNC(=N)N)NC(=O)[C@@H](Cc2ccc(O)cc2)NC(=O)[C@H](C)N(C)C(=O)[C@H](CCCNC(=N)N)NC(=O)[C@H](Cc2ccc(-c3ccccc3)cc2)NC(=O)[C@H](C(C)C)NC(=O)[C@H](Cc2c[nH]c3ccccc23)NC(=O)[C@H](CC(=O)O)NC(=O)[C@H](Cc2ccc(O)cc2)NC(=O)[C@H](Cc2ccccc2)NC(=O)CSC[C@@H](C(=O)NCC(N)=O)NC(=O)[C@H](CO)NC(=O)[C@H](C(C)C)NC1=O [Compound 1020] ({CH2CO}-FYDWV[Bip]R[NMeA][dY]RLVSCG-NH2; thioether N-14) | 0.07 |
| CC[C@H](C)[C@@H]1NC(=O)[C@H](Cc2ccc(-c3ccccc3)cc2)NC(=O)[C@H](C(C)C)NC(=O)[C@H](Cc2c[nH]c3ccccc23)NC(=O)[C@H](CC(=O)O)NC(=O)[C@H](Cc2cccc(OC)c2)NC(=O)[C@H](Cc2ccncc2)NC(=O)CSC[C@@H](C(=O)N[C@@H](C)C(N)=O)NC(=O)[C@H]([C@@H](C)O)NC(=O)[C@H](C(C)C)NC(=O)[C@H](CC(C)C)NC(=O)[C@H](CCN)NC(=O)[C@@H](CC(C)C)NC(=O)[C@H](C)N(C)C1=O [Compound 1406] ({CH2CO}-[4Pal][Phe(3-OMe)]DWV[Bip]I[NMeA][dL][Dab]LVTCA-NH2; thioether N-14) | 0.02 |
| CC[C@H](C)[C@@H]1NC(=O)[C@H](Cc2ccc(-c3ccccc3)cc2)NC(=O)[C@H](C(C)C)NC(=O)[C@H](Cc2cccc(C)c2)NC(=O)[C@H](CC(=O)O)NC(=O)[C@H](Cc2ccncc2)NC(=O)[C@H](CN)NC(=O)CSC[C@@H](C(=O)N[C@@H](C)C(N)=O)NC(=O)[C@H]([C@@H](C)O)NC(=O)[C@H](C(C)C)NC(=O)[C@H](CC(C)C)NC(=O)[C@H](CCN)NC(=O)[C@@H](CC(C)C)NC(=O)[C@H](C)N(C)C1=O [Compound 1544] ({CH2CO}-[Dap][4Pal]D[Phe(3-Me)]V[Bip]I[NMeA][dL][Dab]LVTCA-NH2; thioether N-14) | 0.01 |
| CC(C)C[C@@H]1NC(=O)[C@H](CCN)NC(=O)[C@@H](CC(C)C)NC(=O)[C@H](C)N(C)C(=O)[C@H](CCCNC(=N)N)NC(=O)[C@H](Cc2ccc(-c3cccc(O)c3)cc2)NC(=O)[C@H](C(C)C)NC(=O)[C@H](Cc2c[nH]c3ccccc23)NC(=O)[C@H](CC(=O)O)NC(=O)[C@H](Cc2ccc(O)cc2)NC(=O)[C@H](CC(N)=O)NC(=O)CSC[C@@H](C(=O)N[C@@H](C)C(N)=O)NC(=O)[C@H]([C@@H](C)O)NC(=O)[C@H](C(C)C)NC1=O [Compound 1212] ({CH2CO}-NYDWV[X40]R[NMeA][dL][Dab]LVTCA-NH2; thioether N-14) | 0.69 |
| Cc1cccc(C[C@@H]2NC(=O)[C@H](CC(=O)O)NC(=O)[C@H](Cc3ccc(OCC(=O)O)cc3)NC(=O)[C@H](CN)NC(=O)CSC[C@@H](C(N)=O)NC(=O)[C@H](CCCN)NC(=O)[C@H](C(C)C)NC(=O)[C@H](CC3CCCCC3)NC(=O)[C@H](CCN)NC(=O)[C@@H](CC(C)C)NC(=O)[C@@H]3CCCCN3C(=O)[C@H](Cc3ccc(OCC(=O)O)cc3)NC(=O)[C@H](Cc3ccc(-c4ccccc4)cc3)NC(=O)[C@H](Cc3ccc(OCC(=O)O)cc3)NC2=O)c1 [Compound 1890] ({CH2CO}-[Dap]Y(Carboxymethyl)D[Phe(3-Me)]Y(Carboxymethyl)[Bip]Y(Carboxymethyl)[Pip][dL][Dab][Cha]V[Orn]C-NH2; thioether N-14) | 0.15 |
| CC(C)C[C@@H]1NC(=O)[C@H](Cc2c[nH]c3ccccc23)NC(=O)[C@H](CC(=O)O)NC(=O)[C@H](Cc2ccncc2)NC(=O)[C@H](Cc2ccc(OCC(=O)O)cc2)NC(=O)CSC[C@@H](C(=O)N[C@@H](CCN)C(N)=O)NC(=O)[C@H](CO)NC(=O)[C@H](C(C)C)NC(=O)[C@H](CC2CCCCC2)NC(=O)[C@H](CCN)NC(=O)[C@@H](CC(C)C)NC(=O)[C@H](C)N(C)C(=O)[C@H](C(C)C)NC(=O)[C@H](Cc2ccc(-c3ccccc3)cc2)NC1=O [Compound 1905] ({CH2CO}-Y(Carboxymethyl)[4Pal]DWL[Bip]V[NMeA][dL][Dab][Cha]VSC[Dab]-NH2; thioether N-14) | 0.01 |
| CCCC[C@@H]1NC(=O)[C@H](CCCNC(=N)N)NC(=O)[C@@H](CC(C)C)NC(=O)[C@H](C)N(C)C(=O)[C@H](CCCN)NC(=O)[C@H](Cc2ccc(-c3ccccc3)cc2)NC(=O)[C@H](C(C)C)NC(=O)[C@H](Cc2c[nH]c3ccccc23)NC(=O)[C@H](CC(=O)O)NC(=O)[C@H](Cc2ccc(O)cc2)NC(=O)[C@H](CC(N)=O)NC(=O)CSC[C@@H](C(=O)N[C@@H](C)C(N)=O)NC(=O)[C@H]([C@@H](C)O)NC(=O)[C@H](C(C)C)NC1=O [Compound 1289] ({CH2CO}-NYDWV[Bip][Orn][NMeA][dL]R[Nle]VTCA-NH2; thioether N-14) | 0.09 |
